≈ marks a conversion by molar mass, not a printed value. ± gives the standard deviation of the averaged measurements.
Experiments:
Test in all cases: minimum inhibitory concentration (MIC)
Conditions in all cases: incubation time: 18 h
[1] = system: Burkholderia cepacia ISS isolate s33
[2] = system: Burkholderia cepacia ISS isolate s36
[3] = system: Burkholderia cepacia ISS isolate s37
[4] = system: Burkholderia cepacia ISS isolate s35
[5] = system: Burkholderia cepacia ISS isolate s28
[6] = system: Burkholderia cepacia ISS isolate s25
[7] = system: Burkholderia cepacia ATCC25416
[8] = system: Burkholderia contaminans ISS isolate s52
[9] = system: Burkholderia contaminans ISS isolate s47
[10] = system: Burkholderia contaminans ISS isolate s54
[11] = system: Burkholderia cepacia ISS isolate s23
[12] = system: Burkholderia cepacia ISS isolate s57
[13] = system: Burkholderia cepacia ISS isolate s22
[14] = system: Burkholderia cepacia ISS isolate s31
[15] = system: Burkholderia cepacia ISS isolate s15
[16] = system: Burkholderia contaminans ISS isolate s56
[17] = system: Burkholderia cepacia ISS isolate s9
[18] = system: Burkholderia contaminans J2956
[19] = system: Burkholderia contaminans ISS isolate s53
[20] = system: Burkholderia cepacia ISS isolate s24
[21] = system: Burkholderia cepacia ISS isolate s20
[22] = system: Burkholderia cepacia ISS isolate s16
[23] = system: Burkholderia cepacia ISS isolate s12
[24] = system: Burkholderia cepacia ISS isolate s18
[25] = system: Burkholderia cepacia ISS isolate s39
[26] = system: Burkholderia cepacia ISS isolate s41

SMILES | minimum inhibitory concentration [1] | minimum inhibitory concentration [2] | minimum inhibitory concentration [3] | minimum inhibitory concentration [4] | minimum inhibitory concentration [5] | minimum inhibitory concentration [6] | minimum inhibitory concentration [7] | minimum inhibitory concentration [8] | minimum inhibitory concentration [9] | minimum inhibitory concentration [10] | minimum inhibitory concentration [11] | minimum inhibitory concentration [12] | minimum inhibitory concentration [13] | minimum inhibitory concentration [14] | minimum inhibitory concentration [15] | minimum inhibitory concentration [16] | minimum inhibitory concentration [17] | minimum inhibitory concentration [18] | minimum inhibitory concentration [19] | minimum inhibitory concentration [20] | minimum inhibitory concentration [21] | minimum inhibitory concentration [22] | minimum inhibitory concentration [23] | minimum inhibitory concentration [24] | minimum inhibitory concentration [25] | minimum inhibitory concentration [26]
C[C@H]1COc2c(N3CCN(C)CC3)c(F)cc3c(=O)c(C(=O)O)cn1c23 [levofloxacin] | 1 µg/mL (≈ 2.77 µM) | 1.26 ± 0.87 µg/mL (≈ 3.49 µM) | 1.26 ± 0.58 µg/mL (≈ 3.49 µM) | 1.59 ± 1.7 µg/mL (≈ 4.39 µM) | 10.1 ± 15 µg/mL (≈ 27.9 µM) | 6.35 ± 2.3 µg/mL (≈ 17.6 µM) | 0.63 ± 0.43 µg/mL (≈ 1.74 µM) | 0.5 µg/mL (≈ 1.38 µM) | 0.5 µg/mL (≈ 1.38 µM) | 0.315 ± 0.14 µg/mL (≈ 0.872 µM) | 8 ± 6.1 µg/mL (≈ 22.1 µM) | 0.63 ± 0.29 µg/mL (≈ 1.74 µM) | 8 ± 6.1 µg/mL (≈ 22.1 µM) | 8 ± 6.1 µg/mL (≈ 22.1 µM) | 1 µg/mL (≈ 2.77 µM) | 0.5 µg/mL (≈ 1.38 µM) | 6.35 ± 2.3 µg/mL (≈ 17.6 µM) | 0.5 µg/mL (≈ 1.38 µM) | 0.5 µg/mL (≈ 1.38 µM) | 10.1 ± 15 µg/mL (≈ 27.9 µM) | – | – | – | – | – | –
C[C@@H](O)[C@H]1C(=O)N2C(C(=O)O)=C(S[C@@H]3CN[C@H](C(=O)N(C)C)C3)[C@H](C)[C@H]12 [meropenem] | – | – | 32 µg/mL (≈ 83.4 µM) | 32 µg/mL (≈ 83.4 µM) | 25.4 ± 9.2 µg/mL (≈ 66.2 µM) | 20.2 ± 9.2 µg/mL (≈ 52.6 µM) | 16 ± 12 µg/mL (≈ 41.7 µM) | 4 µg/mL (≈ 10.4 µM) | 4 µg/mL (≈ 10.4 µM) | 4 µg/mL (≈ 10.4 µM) | 20.2 ± 14 µg/mL (≈ 52.6 µM) | 5.04 ± 2.3 µg/mL (≈ 13.1 µM) | 2 ± 1.5 µg/mL (≈ 5.22 µM) | 25.4 ± 9.2 µg/mL (≈ 66.2 µM) | – | 5.04 ± 2.3 µg/mL (≈ 13.1 µM) | 32 µg/mL (≈ 83.4 µM) | 4 µg/mL (≈ 10.4 µM) | 4 µg/mL (≈ 10.4 µM) | 20.2 ± 14 µg/mL (≈ 52.6 µM) | 12.7 ± 14 µg/mL (≈ 33.1 µM) | 10.1 ± 6.9 µg/mL (≈ 26.3 µM) | 20.2 ± 9.2 µg/mL (≈ 52.6 µM) | 12.7 ± 14 µg/mL (≈ 33.1 µM) | – | –
CO/N=C(\C(=O)N[C@@H]1C(=O)N2C(C(=O)O)=C(COC(C)=O)CS[C@H]12)c1csc(N)n1 [cefotaxime] | 20.2 ± 9.2 µg/mL (≈ 44.3 µM) | 16 ± 12 µg/mL (≈ 35.1 µM) | 20.2 ± 9.2 µg/mL (≈ 44.3 µM) | 16 ± 12 µg/mL (≈ 35.1 µM) | 20.2 ± 9.2 µg/mL (≈ 44.3 µM) | 12.7 ± 14 µg/mL (≈ 27.9 µM) | 20.2 ± 9.2 µg/mL (≈ 44.3 µM) | > 64 µg/mL | > 64 µg/mL | > 64 µg/mL | 20.2 ± 9.2 µg/mL (≈ 44.3 µM) | 11.3 ± 5.7 µg/mL (≈ 24.8 µM) | 20.2 ± 9.2 µg/mL (≈ 44.3 µM) | 25.4 ± 9.2 µg/mL (≈ 55.8 µM) | 16 µg/mL (≈ 35.1 µM) | > 64 µg/mL | 20.2 ± 9.2 µg/mL (≈ 44.3 µM) | > 64 µg/mL | > 64 µg/mL | 20.2 ± 9.2 µg/mL (≈ 44.3 µM) | 20.2 ± 9.2 µg/mL (≈ 44.3 µM) | 20.2 ± 9.2 µg/mL (≈ 44.3 µM) | 16 ± 12 µg/mL (≈ 35.1 µM) | 20.2 ± 9.2 µg/mL (≈ 44.3 µM) | 12.7 ± 14 µg/mL (≈ 27.9 µM) | 12.7 ± 14 µg/mL (≈ 27.9 µM)
COc1cc(Cc2cnc(N)nc2N)cc(OC)c1OC.Cc1cc(NS(=O)(=O)c2ccc(N)cc2)no1 [trimethoprim/sulfamethoxazole] | 25.4 ± 9.2 µg/mL | 32 µg/mL | 32 µg/mL | 32 µg/mL | 25.4 ± 9.2 µg/mL | 22.6 ± 11 µg/mL | 20.2 ± 9.2 µg/mL | 6.35 ± 2.3 µg/mL | 8 µg/mL | 6.35 ± 2.3 µg/mL | 25.4 ± 9.2 µg/mL | 16 µg/mL | 20.2 ± 9.2 µg/mL | 20.2 ± 9.2 µg/mL | 25.4 ± 9.2 µg/mL | 10.1 ± 4.6 µg/mL | – | 8 µg/mL | 8 µg/mL | – | 25.4 ± 9.2 µg/mL | 20.2 ± 14 µg/mL | 12.7 ± 4.6 µg/mL | 12.7 ± 14 µg/mL | 20.2 ± 9.2 µg/mL | 25.4 ± 9.2 µg/mL

Reference: the supplement of paper PMC7029842
